Test results published in ChEMBL document CHEMBL4177568 (Bioorg Med Chem Lett, 2017).
The source made the active and inactive calls. No cut-off for these calls is given here.

Key:
[1] = target: Neuronal acetylcholine receptor; assay: Binding affinity to nAChR in rat brain membranes; type: cell membranes, Membrane
[2] = target: T1, Neuronal acetylcholine receptor; alpha3/beta4 (Homo sapiens, UniProt P30926+P32297); assay: Antagonist activity at human alpha3beta4 nAChR expressed in Xenopus laevis oocytes assessed as reduction in acetylcholine-induced peak current at 100 uM at -60 mV holding potential by electrophysiology method; type: cell-based
[3] = target: T2, Neuronal acetylcholine receptor; alpha4/beta2 (Homo sapiens) (UniProt P17787+P43681); assay: Agonist activity at alpha4beta2 nAChR (unknown origin) expressed in Xenopus laevis oocytes assessed as increase in peak current at 30 uM at -60 mV holding potential by electrophysiology method; type: cell-based
[4] = target: T2, Neuronal acetylcholine receptor; alpha4/beta2 (Homo sapiens); assay: Antagonist activity at alpha4beta2 nAChR (unknown origin) expressed in Xenopus laevis oocytes assessed as reduction in acetylcholine-induced peak current at 30 uM at -60 mV holding potential by electrophysiology method; type: cell-based
[5] = target: Neuronal acetylcholine receptor subunit alpha-7 (Homo sapiens) (UniProt P36544); assay: Antagonist activity at alpha7 nAChR (unknown origin) expressed in Xenopus laevis oocytes assessed as reduction in acetylcholine-induced peak current at 60 uM at -60 mV holding potential by electrophysiology method; type: cell-based
[6] = target: Neuronal acetylcholine receptor subunit alpha-7 (Homo sapiens) (UniProt P36544); assay: Agonist activity at alpha7 nAChR (unknown origin) expressed in Xenopus laevis oocytes assessed as increase in peak current at 60 uM at -60 mV holding potential by electrophysiology method; type: cell-based
[7] = target: T1, Neuronal acetylcholine receptor; alpha3/beta4; assay: Agonist activity at human alpha3beta4 nAChR expressed in Xenopus laevis oocytes assessed as increase in peak current at 100 uM at -60 mV holding potential by electrophysiology method; type: cell-based
[8] = target: T1, Neuronal acetylcholine receptor; alpha3/beta4; assay: Antagonist activity at human alpha3beta4 nAChR expressed in Xenopus laevis oocytes assessed as reduction in acetylcholine-induced peak current at -60 mV holding potential by electrophysiology method; type: cell-based

Chain of Neuronal acetylcholine receptor subunit alpha-7 (Homo sapiens) (P36544 whole entry): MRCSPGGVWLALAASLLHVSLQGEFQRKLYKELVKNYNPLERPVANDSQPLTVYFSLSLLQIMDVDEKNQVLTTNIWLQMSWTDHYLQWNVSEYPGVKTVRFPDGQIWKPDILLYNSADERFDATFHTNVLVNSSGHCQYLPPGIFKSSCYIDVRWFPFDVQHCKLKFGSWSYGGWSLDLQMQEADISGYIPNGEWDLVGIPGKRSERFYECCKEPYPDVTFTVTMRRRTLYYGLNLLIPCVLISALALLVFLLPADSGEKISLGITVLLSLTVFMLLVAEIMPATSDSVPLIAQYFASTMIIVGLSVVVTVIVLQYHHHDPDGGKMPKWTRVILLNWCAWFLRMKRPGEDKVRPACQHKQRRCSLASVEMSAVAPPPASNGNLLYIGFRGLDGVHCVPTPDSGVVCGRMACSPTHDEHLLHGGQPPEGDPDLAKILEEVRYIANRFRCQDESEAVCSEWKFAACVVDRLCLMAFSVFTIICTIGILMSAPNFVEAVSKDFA
T1 sequence (P30926 whole entry): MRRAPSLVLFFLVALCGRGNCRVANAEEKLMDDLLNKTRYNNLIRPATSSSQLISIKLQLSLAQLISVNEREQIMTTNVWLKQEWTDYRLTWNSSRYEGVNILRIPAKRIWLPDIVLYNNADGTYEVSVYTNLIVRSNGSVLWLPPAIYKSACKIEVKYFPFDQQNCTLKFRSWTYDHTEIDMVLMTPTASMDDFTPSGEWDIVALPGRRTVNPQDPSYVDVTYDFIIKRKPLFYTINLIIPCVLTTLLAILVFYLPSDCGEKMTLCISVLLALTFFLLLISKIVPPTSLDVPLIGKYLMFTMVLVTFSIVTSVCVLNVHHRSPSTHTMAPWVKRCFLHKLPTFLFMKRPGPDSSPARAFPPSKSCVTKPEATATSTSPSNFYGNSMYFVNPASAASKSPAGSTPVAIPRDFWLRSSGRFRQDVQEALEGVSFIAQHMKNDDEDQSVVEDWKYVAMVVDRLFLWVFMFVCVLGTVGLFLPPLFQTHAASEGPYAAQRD
T1 sequence (P32297 whole entry): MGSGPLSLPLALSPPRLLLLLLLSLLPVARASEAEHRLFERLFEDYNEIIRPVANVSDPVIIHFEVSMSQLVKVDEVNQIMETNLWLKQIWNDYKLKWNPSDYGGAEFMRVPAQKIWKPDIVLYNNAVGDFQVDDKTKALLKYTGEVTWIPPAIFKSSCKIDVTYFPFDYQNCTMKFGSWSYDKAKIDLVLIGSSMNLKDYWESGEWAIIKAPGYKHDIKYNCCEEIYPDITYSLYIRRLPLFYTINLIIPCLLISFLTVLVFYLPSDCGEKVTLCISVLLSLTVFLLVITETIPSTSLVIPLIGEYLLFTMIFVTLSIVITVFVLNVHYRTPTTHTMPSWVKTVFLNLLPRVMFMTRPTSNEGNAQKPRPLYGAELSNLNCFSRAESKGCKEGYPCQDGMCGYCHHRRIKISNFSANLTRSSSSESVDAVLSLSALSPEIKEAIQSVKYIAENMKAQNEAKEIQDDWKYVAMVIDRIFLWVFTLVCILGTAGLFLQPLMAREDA

**Q.** With `CN1CCC=C(c2ccc(Cl)nc2)C1` as the compound, how does the Kd [1] read?
**A.** Its Kd is 2.2 nM.

**Q.** How did the inhibition [2] turn out when `CN1CCC=C(c2cnc(F)c(-c3ccccc3)c2)C1` was run?
**A.** The inhibition was “Active”.

**Q.** And the Activity [3]?
**A.** The Activity was “inactive”.

**Q.** What about the inhibition [4] of the same compound?
**A.** Its inhibition is “inactive”.

**Q.** And the inhibition [5]?
**A.** The inhibition was “inactive”.

**Q.** What about the Activity [6] of the same compound?
**A.** Its Activity is “inactive”.

**Q.** And the Activity [7]?
**A.** Its Activity is “inactive”.

**Q.** What about the IC50 [8] of the same compound?
**A.** The IC50 was 20000 nM.

**Q.** What about the Ki [8] of the same compound?
**A.** The Ki was 123 nM.
